Assay results taken from ChEMBL document CHEMBL1833933, “Relationship between the structures of flavonoids and their NF-κB-dependent transcriptional activities” (Bioorg Med Chem Lett, 2011).
Activity calls are given as the source filed them. The rule behind the calls is not given here.

Key:
Type in all cases: cell-based
HCT-116 [1] = test: Inhibition of NF-kappaB activation expressed in HCT116 cells assessed as inhibition of TNF-alpha-induced transcriptional activation at 10 uM after 12 hrs by luciferase reporter gene assay relative to control; conditions: values are per cent of control
HCT-116 [2] = test: Inhibition of TNF-alpha-induced NF-kappaB activation expressed in HCT116 cells assessed as reduction of IkappaB phosphorylation at Ser32 at 20 uM treated 30 mins before TNFalpha challenge by Western blot analysis
HCT-116 [3] = test: Inhibition of TNF-alpha-induced NF-kappaB activation expressed in HCT116 cells assessed as reduction of RelA phosphorylation at Ser536 at 20 uM treated 30 mins before TNFalpha challenge by immunofluorescence microscopic analysis

Row | SMILES | residual activity (HCT-116 [1]) [%] | also measured
1 | O=c1cc(-c2cccc(O)c2O)oc2ccccc12 | 109 | 
2 | COc1cc(OC)c2c(=O)cc(-c3ccc(OC)c(OC)c3)oc2c1 | 124 | 
3 | COc1cccc2oc(-c3ccccc3)cc(=O)c12 | 63.9 | 
4 | COc1cc(/C=C/C(=O)c2ccccc2OC)cc(OC)c1 | 61.1 | 
5 | COc1cc(OC)c2c(c1)OC(c1ccccc1)CC2=O (stereo not drawn) | 126 | 
6 | O=c1cc(-c2cccc(O)c2)oc2cccc(O)c12 | 126 | 
7 | COc1ccc(/C=C/C(=O)c2ccc(OC)cc2O)cc1 | 83.1 | 
8 | COc1cc(-c2oc3cc(O)cc(O)c3c(=O)c2O[C@@H]2O[C@H](CO)[C@@H](O)[C@H](O)[C@H]2O)ccc1O | 115 | 
9 | Cc1c(-c2ccccc2)oc2c(C(=O)O)cccc2c1=O | 143 | 
10 | O=c1cc(-c2ccccc2)oc2c1ccc1ccccc12 | 91.4 | 
11 | COc1cc(-c2cc(=O)c3ccccc3o2)ccc1O | 105 | 
12 | COc1cccc2oc(-c3ccc(O)cc3)cc(=O)c12 | 87.7 | 
13 | COc1cc(O)c2c(=O)c(-c3ccc(O)cc3)coc2c1 | 105 | 
14 | O=C1C[C@@H](c2ccc(O)cc2)Oc2cc(O)cc(O)c21 | 135 | 
15 | COc1ccc(-c2coc3cc(OC)cc(OC)c3c2=O)cc1 | 123 | 
16 | O=c1cc(-c2ccccc2)oc2ccc3ccccc3c12 | 150 | 
17 | COc1cc(/C=C/C(=O)c2cc(OC)cc(OC)c2)cc(OC)c1 |  | inhibition (HCT-116 [2]): Active; inhibition (HCT-116 [3]): Active
18 | COc1cccc(/C=C/C(=O)c2cc(OC)cc(OC)c2)c1 | 77.4 | 
19 | COc1ccccc1-c1cc(=O)c2ccc3ccccc3c2o1 | 65.1 | 
20 | O=c1c(O)c(-c2ccc(O)c(O)c2)oc2c(O[C@@H]3O[C@H](CO)[C@@H](O)[C@H](O)[C@H]3O)c(O)cc(O)c12 | 99.1 | 
21 | COc1cccc2c1C(=O)CC(c1ccccc1)O2 (stereo not drawn) | 108 | 
22 | COc1ccc2c(=O)c(-c3ccccc3)coc2c1 | 132 | 
23 | O=c1cc(-c2ccccc2)oc2cccc(O)c12 | 116 | 
24 | COc1cccc(-c2cc(=O)c3ccccc3o2)c1OC | 100 | 
25 | O=c1cc(-c2ccccc2)oc2ccccc12 | 113 | 
26 | COc1ccc(-c2cc(=O)c3c(OC)cc(OC)cc3o2)cc1 | 89.9 | 
27 | COc1ccc2c(c1)OC(c1cc(OC)c(OC)c(OC)c1)CC2=O (stereo not drawn) | 99.8 | 
